The text below walks through data of patent US7094581B2, “Hyaluronan synthases and methods of making and using same” (The Board of Regents of the University of Oklahoma, priority 1998, dated 2006).

Like-named read-outs stand apart in the source and are kept apart here.

The subject of series [1] is seHAS. Nature of the series: Effect of sulfhydryl reagents on seHAS activity in E. coli membranes. The series is classed as biochemical, Streptococcus equisimilis. Particulars: E. coli membranes with seHAS-H6, 4° C. 1 h, 5 mM NEM, 5 mM IAA, 0.5 mM 5,5′-dithiobis-(2-nitrobenzoic acid), 0.05 mM methylmethanethiosulfonate, 10 mM sodium arsenite. As to the method: (§1) SeHAS is the smallest HAS protein (417 amino acids) and contains four Cys residues. […] To explore the possible role of cysteines in the function of HAS, the activities of seHAS and spHAS were assayed in the presence of different sulfhydryl reagents (Table II). […] The inhibition of each HAS by NEM was examined in more detail with respect to time of incubation and NEM concentration (FIG. 2).
(§2) E. coli SURE cells transformed with plasmids containing various seHAS mutants were grown in LB medium with vigorous shaking at 32° C. to A600 ˜0.8 and induced with 1 mM isopropyl-β-thiogalactoside for 3 h. Cells were harvested and membranes were prepared as described previously. The kinetic constants for HAS were determined at 37° C. in 100 μl of 50 mM sodium and potassium phosphate, pH 7.0, with 20 mM MgCl2, 1 mM DTE, 240 μM UDP-GIcUA, 0.7 μM UDP-[^14C]GIcUA and 0.6–1.0 mM UDP-GIcNAc. in 100 μl of 25 mM sodium and potassium phosphate, pH 7, containing 50 mM NaCl, 20 mM MgCl2, 1 mM dithiothreitol, 1 mM UDP-GIcUA, 0.68 μM UDP-GIcUA and 1 mM UDP-GIcNAc. Some assays also contained 0.1 mM EDTA and 20% glycerol (v/v). To initiate the enzyme reaction, ˜0.5–40 μg of membrane protein was added and the mixtures were gently shaken in a MicroMixer X-36 (Tiatec) at 30° C. for 1–2 h. Reactions were terminated by the addition of SDS to a final concentration of 2% (w/v). The incorporation of radioactive [^14C]GIcUA was determined by descending paper chromatography and the Km and Vmax values were determined as described by Tlapak-Simmons et al (1999b). Data were analyzed by the methods of Michaelis-Menton or Hill. Protein content was determined by the method of Bradford using bovine serum albumin as the standard. All Cys-mutant or sulfhydryl-treated seHAS samples were assayed in duplicate or triplicate using two or three independent membrane preparations. […] All enzyme assays were performed under conditions that were linear with respect to time and protein concentration.
(§3) Stock solutions (10–100 mM) of NEM, IAA or other sulfhydryl reagents were made in PBS, pH 7.0. Suspensions of membranes containing seHAS or spHAS were incubated with 0–5 mM of the sulfhydryl reagent at 4° C. and the reactions were stopped by adding DTE to a final concentration of 10 mM. The membranes were then assayed for HAS activity as described above.

The next series deals with T1, spHAS (Streptococcus pyogenes serotype M6, UniProt Q5X9A9).
T1 construct: made in house; host or cells: E. coli SURE cells (isolated membranes)
T1 sequence (Q5X9A9 1-419): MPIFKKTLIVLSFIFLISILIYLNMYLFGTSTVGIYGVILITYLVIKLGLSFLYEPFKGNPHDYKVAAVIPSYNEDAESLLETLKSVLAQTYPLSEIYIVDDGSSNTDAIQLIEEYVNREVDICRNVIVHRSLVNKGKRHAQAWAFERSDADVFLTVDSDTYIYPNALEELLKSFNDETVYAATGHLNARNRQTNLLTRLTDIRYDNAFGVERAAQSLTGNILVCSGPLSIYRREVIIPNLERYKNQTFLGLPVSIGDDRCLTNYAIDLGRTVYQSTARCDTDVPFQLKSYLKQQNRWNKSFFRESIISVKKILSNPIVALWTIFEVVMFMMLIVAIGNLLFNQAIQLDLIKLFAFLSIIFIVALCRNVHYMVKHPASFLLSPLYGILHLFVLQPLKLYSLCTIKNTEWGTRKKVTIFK
As to the kind of experiment: Effect of sulfhydryl reagents on spHAS activity in E. coli membranes. Type of series: biochemical. Particulars: for Inhibition of HAS Activity (% relative to control), spHAS: E. coli membranes with spHAS-H6, 4° C. 1 h, 5 mM NEM, 5 mM IAA, 0.5 mM 5,5′-dithiobis-(2-nitrobenzoic acid), 0.05 mM methylmethanethiosulfonate, 10 mM sodium arsenite. As to the method: as §1, §2, §3

The next series has as its system wild-type seHAS. Nature of the series: Utilization of UDP-GlcUA and UDP-GlcNAc by wild-type seHAS after NEM or sodium arsenite treatment. The series is classed as biochemical, Streptococcus equisimilis. The settings on record: membranes 4° C. 1 h with 5 mM NEM or 10 mM sodium arsenite. The protocol: FIG. 3. Effect of NEM or sodium arsenite treatment on the utilization of UDP-GIcUA and UDP-GIcNAc by wild-type seHAS. E. coli membranes containing seHAS protein were incubated at 4° C. for 1 h in PBS containing 5 mM NEM or 10 mM Sodium Arsenite (SodArs), and the control membranes were incubated with PBS alone. Michaelis-Menten constants (Km) were calculated from the activities of seHAS at varying concentrations of UDP-GIcUA or UDP-GIcNAc.
Modification of the protein by NEM could affect any one or several of the six discrete functions that HAS must perform in order to synthesize HA. In order to determine if one of the nucleotide-sugar binding sites was affected by NEM, we examined the UDP-GIcUA and UDP-GIcNAc saturation profiles for treated and untreated seHAS (FIG. 3 and Table III).
E. coli SURE cells transformed with plasmids containing various seHAS mutants were grown in LB medium with vigorous shaking at 32° C. to A600 ˜0.8 and induced with 1 mM isopropyl-β-thiogalactoside for 3 h. Cells were harvested and membranes were prepared as described previously. The kinetic constants for HAS were determined at 37° C. in 100 μl of 50 mM sodium and potassium phosphate, pH 7.0, with 20 mM MgCl2, 1 mM DTE, 240 μM UDP-GIcUA, 0.7 μM UDP-[^14C]GIcUA and 0.6–1.0 mM UDP-GIcNAc. in 100 μl of 25 mM sodium and potassium phosphate, pH 7, containing 50 mM NaCl, 20 mM MgCl2, 1 mM dithiothreitol, 1 mM UDP-GIcUA, 0.68 μM UDP-GIcUA and 1 mM UDP-GIcNAc. Some assays also contained 0.1 mM EDTA and 20% glycerol (v/v). To initiate the enzyme reaction, ˜0.5–40 μg of membrane protein was added and the mixtures were gently shaken in a MicroMixer X-36 (Tiatec) at 30° C. for 1–2 h. Reactions were terminated by the addition of SDS to a final concentration of 2% (w/v). The incorporation of radioactive [^14C]GIcUA was determined by descending paper chromatography and the Km and Vmax values were determined as described by Tlapak-Simmons et al (1999b). Data were analyzed by the methods of Michaelis-Menton or Hill. Protein content was determined by the method of Bradford using bovine serum albumin as the standard. All Cys-mutant or sulfhydryl-treated seHAS samples were assayed in duplicate or triplicate using two or three independent membrane preparations. Results are presented as the mean±standard errors. All enzyme assays were performed under conditions that were linear with respect to time and protein concentration. None of the seHAS variant enzymes were unstable under the conditions employed.

Series [2] concerns seHAS. Type of series: biochemical, Streptococcus equisimilis. The settings on record: for Hill number: seHAS variants, UDP-GlcNAc utilization. As to the method: as §2

Take `O=C(O)c1cc(SSc2ccc([N+](=O)[O-])c(C(=O)O)c2)ccc1[N+](=O)[O-]` [5,5′-dithiobis-(2-nitrobenzoic acid)]: the “Inhibition of HAS Activity (% relative to control), seHAS” value with seHAS [1] is given as 52 ± 6.5%. At spHAS, the “Inhibition of HAS Activity (% relative to control), spHAS” value worked out at 52 ± 4.9%.

The term inhibition denotes the percentage by which the read-out fell short of the control. As usually defined, the Km is the concentration of substrate that gives half-maximal velocity. With `O=[As]O` [Sodium Arsenite], the “Inhibition of HAS Activity (% relative to control), seHAS” value in the series with seHAS [1] is reported as 40 ± 4.0%. For the same molecule, the inhibition at 10000 µM on spHAS (read-out: Inhibition of HAS Activity (% relative to control), spHAS) turned out to be 46 ± 5.1%. In addition, the “Vmax of treated wild-type seHAS, UDP-GlcNAc” value with wild-type seHAS is 9.5 ± 1.1 nmol/µg/h. The “Vmax of treated wild-type seHAS, UDP-GlcUA” value in the series with wild-type seHAS stood at 9.5 ± 1.1 nmol/µg/h. Also, the Km in the series with wild-type seHAS (read-out: Km for UDP-GlcNAc of treated wild-type seHAS) is 112 ± 38 µM; with wild-type seHAS (read-out: Km for UDP-GlcUA of treated wild-type seHAS), 67 ± 23 µM.

Turning to `CSS(C)(=O)=O` [Methylmethanethiosulfonate], the “Inhibition of HAS Activity (% relative to control), seHAS” value in the series with seHAS [1] is recorded as 93 ± 5.4%; in the series on seHAS [1] (listed as methylmethanethiosulfonate), more than 93%. Further, at spHAS, the “Inhibition of HAS Activity (% relative to control), spHAS” value stood at 89 ± 5.5%.

As for `O=C(O)CI` [Iodacetic acid], the “Inhibition of HAS Activity (% relative to control), seHAS” value in the series on seHAS [1] turned out to be 15%. Also, on spHAS, the “Inhibition of HAS Activity (% relative to control), spHAS” value is given as 13 ± 5.4%.

B1: WT: wild-type Streptococcus equisimilis hyaluronan synthase (seHAS-His6), SEQ ID NO:2 (protein, listed as Streptococcus equisimilis)
chain: MRTLKNLITVVAFSIFWVLLIYVNVYLFGAKGSLSIYGFLLIAYLLVKMSLSFFYKPFKGRAGQYKVAAIIPSYNEDAESLLETLKSVQQQTYPLAEIYVVDDGSADETGIKRIEDYVRDTGDLSSNVIVHRSEKNQGKRHAQAWAFERSDADVFLTVDSDTYIYPDALEELLKTFNDPTVFAATGHLNVRNRQTNLLTRLTDIRYDNAFGVERAAQSVTGNILVCSGPLSVYRREVVVPNIDRYINQTFLGIPVSIGDDRCLTNYATDLGKTVYQSTAKCITDVPDKMSTYLKQQNRWNKSFFRESIISVKKIMNNPFVALWTILEVSMFMMLVYSVVDFFVGNVREFDWLRVLAFLVIIFIVALCRNIHYMLKHPLSFLLSPFYGVLHLFVLQPLKLYSLFTIRNADWGTRKKLL
modifications: His6 tag
Regarding B1, the Vmax in the series on seHAS [2] (seHAS variants in membranes from E. coli SURE cells) worked out at 5.60 ± 0.48 nmol/pmol/h. The Km in the series with seHAS [2] (seHAS variants in membranes from E. coli SURE cells, read-out: Km for UDPGlcNAc) stood at 74 ± 7 µM; in the series with seHAS [2] (seHAS variants in membranes from E. coli SURE cells, read-out: Km for UDPGlcUA), 77 ± 5 µM. Further, the values for the Hill number with seHAS [2] and in the series on seHAS [2] (listed as wild-type) were 1.1 ± 0.1 and 1.0, respectively.
